This note sets out measurements from ChEMBL document CHEMBL5223130, “Targeting SARS-CoV-2 Main Protease for Treatment of COVID-19: Covalent Inhibitors Structure-Activity Relationship Insights and Evolution Perspectives” (J Med Chem, 2022).

One may read the EC50 as the concentration at which the effect is half-maximal. Read a low EC50 as an effect from little substance.

In assay [1] the test system is SARS-CoV-2. The format is functional, organism-based, Vero E6. Particulars: Severe acute respiratory syndrome coronavirus 2, 107, Vero C1008.
The test system of assay [2] is SARS-CoV-2. The format is functional, organism-based, Vero E6. Particulars: Severe acute respiratory syndrome coronavirus 2, Vero C1008.

For `COc1ccc(OCC(=O)N2C[C@H]3[C@@H]([C@H]2C(=O)N[C@H](C=O)C[C@@H]2CCNC2=O)C3(C)C)cc1`, a half-maximal effect in the assay with SARS-CoV-2 [1] (EC50) was put at 0.86 µM.

`O=c1c(O)c(-c2cc(O)c(O)c(O)c2)oc2cc(O)cc(O)c12` [MYRICETIN] had a 50% effective concentration (EC50) in the assay on SARS-CoV-2 [2] of 8 µM.

In turn, `O=C[C@H](C[C@@H]1CCNC1=O)NC(=O)[C@@H]1[C@H]2CCC[C@H]2CN1C(=O)COc1ccc(Cl)cc1Cl` yielded an EC50 in the assay on SARS-CoV-2 [1] of 0.54 µM.
